Results published in US20190000868A1, “COMPOSITIONS COMPRISING 4'-O-GLUCURONIDE EPICATECHIN AND METHODS OF MAKING AND USING SUCH COMPOSITIONS” (NESTEC S.A., priority 2015, published 2019).

Test system: endothelial nitric oxide synthase
Test: eNOS phosphorylation (western blot) in isolated aortic rat rings
Assay type: cell-based
Design: dose or concentration left out as unconfirmed
Conditions: isolated thoracic aortic rings of male Wistar rats, incubated 1 h, FIG. 4
Experimental: Comparative experiments were conducted on the expression of endothelial nitric oxide synthase in isolated aortic rat rings.
Thoracic aortas were obtained from male adults Wistar rats after euthanasia. Each aorta was carefully dissected and harvested cleaned of excess tissue and cut into three equal segments, approximately 7 mm long. All aortic rings were pre-incubated for 30 min in Krebs solution (20 mM Hepes buffer, pH 7.4, containing 119 mM NaCl, 4.7 mM KCl, 1 mM MgSO4, 0.4 mM NaH2PO4, 0.15 mM Na2HPO4, 5 mM NaHCO3, 1.25 mM CaCl2, 5.5 mM glucose) aerated with 95% O2 and 5% CO2 at 37° C. and then incubated with vehicle (DMSO 1%) or the different metabolites for 1 h. Metabolites were first dissolved in DMSO 1% and tested in a final concentration […]. At the end of the incubation period aortic rings were frozen at −70° C. until the homogenate preparation. Homogenates for western blot and western blot determinations were carried out by the regular procedures and phosphorylation level of endothelial nitric oxide synthase was evaluated.

O=C(O)[C@H]1O[C@@H](Oc2ccc([C@H]3Oc4cc(O)cc(O)c4C[C@H]3O)cc2O)[C@H](O)[C@@H](O)[C@@H]1O [4′-O-glucuronide epicatechins, 4′-O-glucuronide epicatechin]
phosphorylation level of endothelial nitric oxide synthase (p-eNOS vs eNOS total): increased eNOS phosphorylation relative to control and chemically similar epicatechins
